Laboratory results taken from US8188059B2, “Compounds and methods for modulating expression of GCGR” (Isis Pharmaceuticals, Inc., priority 2006, dated 2012).
Strand notation (5' to 3'): a small letter for the sugar, then the base; units joined by * are phosphorothioate-linked, units joined directly phosphodiester-linked; [ ] holds rarer units or linkages, { } end groups; capitals alone tell only the bases. e = 2'-O-(2-methoxyethyl) (MOE); [5mC] = 5-methylcytosine; d = 2'-deoxy (DNA)

Key:
[1] = test system: PTP1B mRNA; test: Dose response for human PTP1B in HuVEC cells, Primer Probe Set 198 (Example 25, Table 86); assay type: cell-based
Experimental: (§1) Human vascular endothelial (HuVEC) cells were plated at a density of 5000 cells per well and treated as described herein with nM concentrations of short antisense compound as indicated in Table 86. After the treatment period, RNA was isolated from the cells and PTP1B mRNA levels were measured by quantitative real-time PCR, as described herein. PTP1B mRNA levels were adjusted according to total RNA content as measured by RIBOGREEN®. Two different human PTP1B primer probe sets were used to measure mRNA levels. Results with Primer Probe Set (PPS) 198 are shown in Table 86, and results with Primer Probe Set (PPS) 3000 are shown in Table 87. Results are presented as percent inhibition of PTP1B mRNA expression relative to untreated control cells.

[2] = test system: PTP1B mRNA; test: Dose response for human PTP1B in HuVEC cells, Primer Probe Set 3000 (Example 25, Table 87); assay type: cell-based
Experimental: as §1

[3] = test system: PCSK9 mRNA; assay type: cell-based, human; settings: Hep3B cells, 100 nM, relative to untreated control cells; for % Inhib (PCSK9 mRNA): 0 = no reduction observed
Experimental: When cells reached appropriate confluency, they were treated with oligonucleotide using LIPOFECTIN® as described. […] Cells were treated and data were obtained in duplicate or triplicate. […] Cells were harvested 16-24 hours after oligonucleotide treatment.
Short antisense compounds targeted to a PCSK9 nucleic acid were tested for their effects on PCSK9 mRNA in vitro. The Isis No, gapmer motif and SEQ ID NO of each short antisense compound are shown again in Table 75. Cultured Hep3B cells were treated with 100 nM of short antisense compound. 5-10-5 MOE gapmers targeted to a PCSK9 nucleic acid were used as positive controls. After the treatment period, RNA was isolated from the cells and PCSK9 mRNA levels were measured by quantitative real-time PCR, as described herein. PCSK9 mRNA levels were adjusted according to total RNA content as measured by RIBOGREEN®. Results are presented in Table 75 as percent inhibition of PCSK9 (% Inhib), relative to untreated control cells.

[4] = Triglyceride, cholesterol and glucose levels, pre-bleed and post-bleed (Example 4, Table 34); assay type: in vivo, mouse
Experimental: Eight-week old male C57/BL6 mice (Jackson Laboratory, Bar Harbor, Me.) were administered a single dose of GCGR oligonucleotide by intraperitoneal injection at a concentration of […]. Each dose group consisted of four animals. Shown in Table 31 are the sequences, motifs and conjugates of the GCGR antisense compounds used in this study. Bolded residues indicate 2′-O-methoxyethyl (2′-MOE) moieties. All compounds comprise phosphorothioate internucleoside linkages throughout and each cytosine is replaced with 5-methylcytosine. ISIS 386626, ISIS 386627 and ISIS 386628 further comprise a C16 conjugate group attached to the 2′-O position of the sugar via a diamide linkage (2′-OCH2C(═O)N(H)(CH2)4N(H)C(═O)—(CH2)15CH3). GCGR antisense compounds target published GCGR sequences, including Genbank® Accession No. BC031885.1 (SEQ ID NO: 7).
Mice were sacrificed 48 hours following injection to determine serum transaminase levels (Table 32); liver, white adipose tissue (WAT), spleen and kidney weight (Table 33); cholesterol, triglyceride and glucose levels (Table 34); GCGR mRNA levels (Tables 35-41); and full-length and total oligonucleotide concentration in liver and kidney (Table 42). Endpoints were assessed using methods described herein and well known to those of ordinary skill in the art. Data is included from a pre-treatment bleed (Pre-Bleed) and post-treatment bleed (Post-Bleed).

Substance | % Inhibition of PTP1B mRNA ([1]; PPS 198, 1.11 nM) | % Inhibition of PTP1B mRNA ([1]; PPS 198, 3.33 nM) | % Inhibition of PTP1B mRNA ([1]; PPS 198, 10.0 nM) | % Inhibition of PTP1B mRNA ([1]; PPS 198, 30.0 nM) | % Inhibition of PTP1B mRNA ([2]; PPS 3000, 1.11 nM) | % Inhibition of PTP1B mRNA ([2]; PPS 3000, 3.33 nM) | % Inhibition of PTP1B mRNA ([2]; PPS 3000, 10.0 nM) | % Inhibition of PTP1B mRNA ([2]; PPS 3000, 30.0 nM) | % Inhib (PCSK9 mRNA) [3] | % Inhibition Range (PCSK9 mRNA) [3] | post-bleed glucose levels ([4]; C57/BL6 mice, single i.p. dose, 48 hours) | post-bleed triglyceride levels ([4]; relative to the 5-10-5 MOE gapmer)
398105 (antisense eT*eG*d[5mC]*dA*d[5mC]*dA*dG*dG*d[5mC]*dA*dG*dG*eT*eT) [compound 398105] | 0% | 25% | 79% | 90% | 0% | 35% | 79% | 93% | – | – | – | –
398112 (antisense e[5mC]*eA*dG*d[5mC]*d[5mC]*dT*dG*dG*d[5mC]*dA*d[5mC]*d[5mC]*eT*eA) [compound 398112] | 1% | 10% | 73% | 93% | 0% | 26% | 77% | 94% | – | – | – | –
398120 (antisense eG*eT*dT*d[5mC]*dA*dA*dG*d[5mC]*dG*dG*d[5mC]*d[5mC]*eT*eA) [compound 398120] | 0% | 31% | 80% | 96% | 0% | 35% | 79% | 93% | – | – | – | –
398173 (antisense e[5mC]*dA*dG*d[5mC]*d[5mC]*dT*dG*dG*dG*d[5mC]*dA*e[5mC]) [compound 398173] | 0% | 4% | 80% | 97% | 0% | 18% | 80% | 90% | – | – | – | –
399096 (antisense eT*eG*d[5mC]*dT*d[5mC]*dG*dA*dA*d[5mC]*dT*d[5mC]*d[5mC]*eT*eT) [compound 399096] | 3% | 30% | 78% | 96% | 0% | 23% | 75% | 94% | – | – | – | –
399102 (antisense eG*eA*dA*dG*dT*d[5mC]*dA*d[5mC]*dT*dG*dG*d[5mC]*eT*eT) [compound 399102] | 0% | 15% | 62% | 88% | 0% | 9% | 60% | 87% | – | – | – | –
399113 (antisense eG*eT*dT*dA*dG*dG*d[5mC]*dA*dA*dA*dG*dG*eG*e[5mC]) [compound 399113] | 0% | 31% | 72% | 90% | 0% | 9% | 65% | 90% | – | – | – | –
399132 (antisense eG*eG*dG*d[5mC]*dT*dG*dA*dG*dT*dG*dA*d[5mC]*e[5mC]*e[5mC]) [compound 399132] | 0% | 32% | 75% | 95% | 0% | 26% | 76% | 91% | – | – | – | –
399173 (antisense eA*eT*dG*d[5mC]*dT*dA*dG*dT*dG*d[5mC]*dA*d[5mC]*eT*eA) [compound 399173] | 0% | 24% | 63% | 89% | 0% | 11% | 59% | 92% | – | – | – | –
399208 (antisense eA*eG*d[5mC]*dT*d[5mC]*dG*d[5mC]*dT*dA*d[5mC]*d[5mC]*dT*e[5mC]*eT) [compound 399208] | 0% | 37% | 86% | 93% | 0% | 47% | 85% | 96% | – | – | – | –
399276 (antisense eG*eA*dG*dG*dT*dA*dT*d[5mC]*d[5mC]*d[5mC]*dA*dT*e[5mC]*eT) [compound 399276] | 0% | 8% | 61% | 89% | 0% | 14% | 64% | 86% | – | – | – | –
399315 (antisense eG*eG*d[5mC]*dA*dA*d[5mC]*dT*dT*d[5mC]*dA*dA*d[5mC]*e[5mC]*eT) [compound 399315] | 0% | 20% | 68% | 88% | 0% | 25% | 71% | 93% | – | – | – | –
400369 (antisense e[5mC]*e[5mC]*dG*dG*d[5mC]*dT*d[5mC]*d[5mC]*dG*dG*d[5mC]*dA*eG*e[5mC]) [compound 400369] | – | – | – | – | – | – | – | – | 0% | – | – | –
400370 (antisense eG*e[5mC]*d[5mC]*dG*dG*d[5mC]*dT*d[5mC]*d[5mC]*dG*dG*d[5mC]*eA*eG) [compound 400370] | – | – | – | – | – | – | – | – | 13% | 10-20% | – | –
400371 (antisense eA*eG*dT*dT*dA*d[5mC]*dA*dA*dA*dA*dG*d[5mC]*eA*eA) [compound 400371] | – | – | – | – | – | – | – | – | 0% | – | – | –
ISIS 386628: GCGR 2-10-2 MOE gapmer with C16 conjugate group at the 2′-O position via a diamide linkage (antisense TGTCTTGCTGCTTT; chemistry not fully specified) | – | – | – | – | – | – | – | – | – | – | generally led to a decrease | greatest dose-dependent effect
